According to patent US20240390340A1 (INCYTE CORPORATION, priority 2023, published 2024):

Experiments:
[1] = system: Caco-2 cells; assay: Caco2 assay (Papp A-B); format: in vitro ADME; settings: test compound 50 μM, 120 min, 37° C.
Protocol: Caco-2 cells are grown at 37° C. in an atmosphere of 5% CO2 in DMEM growth medium supplemented with 10% (v/v) fetal bovine serum, 1% (v/v) nonessential amino acids, penicillin (100 U/mL), and streptomycin (100 μg/mL). Confluent cell monolayers are subcultured every 7 days or 4 days for Caco-2 by treatment with 0.05% trypsin containing […]. Caco-2 cells are seeded in 96-well Transwell plates. The seeding density for Caco-2 cells is 14,000 cells/well. DMEM growth medium is replaced every other day after seeding. Cell monolayers are used for transport assays between 22 and 25 days for Caco-2 cells.
Cell culture medium is removed and replaced with HBSS. To measure the TEER, the HBSS is added into the donor compartment (apical side) and receiver compartment (basolateral side). The TEER is measured by using a REMS Autosampler to ensure the integrity of the cell monolayers. Caco-2 cell monolayers with TEER values 300 Ω·cm^2 are used for transport experiments. To determine the Papp in the absorptive direction (A-B), solution of test compound (50 μM) in HBSS is added to the donor compartment (apical side), while HBSS solution with 4% BSA is added to the receiver compartment (basolateral side). The apical volume was 0.075 mL, and the basolateral volume is 0.25 mL. The incubation period is 120 min. at 37° C. in an atmosphere of 5% CO2. At the end of the incubation period, samples from the donor and receiver sides are removed and an equal volume of MeCN is added for protein precipitation. The supernatants are collected after centrifugation (3000 rpm, Allegra X-14R Centrifuge from Beckman Coulter, Indianapolis, IN) for LCMS analysis. The permeability value is determined according to the equation:
[formula] • where the flux rate (F, mass/time) is calculated from the slope of cumulative amounts of compound of interest on the receiver side, SA is the surface area of the cell membrane, VD is the donor volume, and MD is the initial amount of the solution in the donor chamber.
The symbol “+” indicates a Caco-2 value of ≤0.5, “++” indicates a Caco-2 value of >0.5 but ≤1; and “+++” indicates a Caco-2 value of >1. “NA” indicates IC50 not available.

[2] = molecular target: KRAS G12D (Homo sapiens, UniProt P01116, G12D); assay: GDP-GTP exchange assay (bodipy-GDP/GppNHp, SOS1), KRAS G12D; format: biochemical; settings: Table H, column G12D; for compounds isolated as several atropisomers/diastereoisomers the value for the most potent isomer is quoted; read-out: KRAS G12D exchange assay IC50
[3] = molecular target: KRAS G12V (Homo sapiens, UniProt P01116, G12V); assay: GDP-GTP exchange assay (bodipy-GDP/GppNHp, SOS1), KRAS G12V; format: biochemical; settings: Table H, column G12V; for compounds isolated as several atropisomers/diastereoisomers the value for the most potent isomer is quoted; read-out: KRAS G12V exchange assay IC50
Sequence of KRAS G12V (P01116 1-188 isoform P01116-2 G12V): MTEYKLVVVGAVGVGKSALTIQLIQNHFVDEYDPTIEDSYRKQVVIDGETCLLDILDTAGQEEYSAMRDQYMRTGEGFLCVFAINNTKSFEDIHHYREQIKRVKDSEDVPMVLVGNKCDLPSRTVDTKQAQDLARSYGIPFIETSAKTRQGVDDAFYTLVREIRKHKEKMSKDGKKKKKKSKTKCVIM

Sequence of KRAS G12D (P01116 1-188 isoform P01116-2 G12D): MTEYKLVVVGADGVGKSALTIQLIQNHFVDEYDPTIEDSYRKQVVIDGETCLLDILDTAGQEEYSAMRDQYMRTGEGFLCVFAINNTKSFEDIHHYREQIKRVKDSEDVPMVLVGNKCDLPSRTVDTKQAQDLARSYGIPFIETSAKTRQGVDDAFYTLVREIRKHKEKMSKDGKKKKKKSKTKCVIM

Caco-2 [1] | IC50 [2] [nM] | IC50 [3] [nM] | Structure (SMILES)
+ (a Caco-2 value of ≤0.5) | ≤ 100 | ≤ 100 | C[C@@H](O)c1nc2c(F)c(-c3cccc(Cl)c3Cl)c(CCC#N)cc2c2c1cc([C@H]1C[C@H](Oc3nccs3)CN1C(=O)C1CC1)n2[C@H]1[C@H]2CN[C@@H]1C2 [Example 54, 3-(1-((1R,4R,5S)-2-Azabicyclo[2.1.1]hexan-5-yl)-2-((2R,4S)-1-(cyclopropanecarbonyl)-4-(thiazol-2-yloxy)pyrrolidin-2-yl)-7-(2,3-dichlorophenyl)-6-fluoro-4-((R)-1-hydroxyethyl)-1H-pyrrolo[3,2-c]quinolin-8-yl)propanenitrile]
+ (a Caco-2 value of ≤0.5) | ≤ 100 | ≤ 100 | CN(C)C(=O)c1ccc(-c2nc3c(F)c(-c4cccc(Cl)c4Cl)c(CCC#N)cc3c3c2cc([C@H]2C[C@H](OCc4c(F)cccc4F)CN2C(=O)C2CC2)n3[C@H]2[C@H]3CN[C@@H]2C3)cn1 [Example 26]
+ (a Caco-2 value of ≤0.5) | ≤ 100 | ≤ 100 | Cc1nc2c(F)c(-c3cccc(Cl)c3Cl)c(CCC#N)cc2c2c1cc([C@H]1C[C@H](Oc3ccnc(OC(F)F)c3)CN1C(=O)C1CC1)n2[C@H]1[C@H]2CN[C@@H]1C2 [Example 40, 3-(1-((1R,4R,5S)-2-Azabicyclo[2.1.1]hexan-5-yl)-2-((2R,4S)-1-(cyclopropanecarbonyl)-4-((2-(difluoromethoxy)pyridin-4-yl)oxy)pyrrolidin-2-yl)-7-(2,3-dichlorophenyl)-6-fluoro-4-methyl-1H-pyrrolo[3,2-c]quinolin-8-yl)propanenitrile]
++ (a Caco-2 value of >0.5 but ≤1) | ≤ 100 | ≤ 100 | Cc1nc2c(F)c(-c3cccc(Cl)c3Cl)c(CCC#N)cc2c2c1cc([C@H]1C[C@H](n3nccn3)CN1C(=O)C1CC1)n2[C@H]1[C@H]2CN[C@@H]1C2 [Example 74, 3-(1-((1R,4R,5S)-2-Azabicyclo[2.1.1]hexan-5-yl)-2-((2R,4S)-1-(cyclopropanecarbonyl)-4-(2H-1,2,3-triazol-2-yl)pyrrolidin-2-yl)-7-(2,3-dichlorophenyl)-6-fluoro-4-methyl-1H-pyrrolo[3,2-c]quinolin-8-yl)propanenitrile]
+ (a Caco-2 value of ≤0.5) | ≤ 100 | ≤ 100 | Cc1nc2c(F)c(-c3cccc(Cl)c3Cl)c(CCC#N)cc2c2c1cc([C@H]1C[C@H](Oc3cccnc3OC(F)F)CN1C(=O)C1CC1)n2[C@H]1[C@H]2CN[C@@H]1C2 [Example 37, 3-(1-((1R,4R,5S)-2-Azabicyclo[2.1.1]hexan-5-yl)-2-((2R,4S)-1-(cyclopropanecarbonyl)-4-((2-(difluoromethoxy)pyridin-3-yl)oxy)pyrrolidin-2-yl)-7-(2,3-dichlorophenyl)-6-fluoro-4-methyl-1H-pyrrolo[3,2-c]quinolin-8-yl)propanenitrile]
+ (a Caco-2 value of ≤0.5) | ≤ 100 | ≤ 100 | Cc1nc2c(F)c(-c3cccc(Cl)c3Cl)c(CCC#N)cc2c2c1cc([C@H]1C[C@H](OCc3nccs3)C3(CC3)N1C(=O)C1CC1)n2[C@H]1[C@H]2CN[C@@H]1C2 [Example 31]
++ (a Caco-2 value of >0.5 but ≤1) | ≤ 100 | ≤ 100 | C[C@@H]1[C@@H](Oc2cc(F)ccn2)C[C@H](c2cc3c([C@@H](C)O)nc4c(F)c(-c5cccc(Cl)c5Cl)c(CCC#N)cc4c3n2[C@H]2[C@H]3CN[C@@H]2C3)N1C(=O)C1CC1 [Example 63, 3-(1-((1R,4R,5S)-2-Azabicyclo[2.1.1]hexan-5-yl)-2-((2R,4S,5R)-1-(cyclopropanecarbonyl)-4-((4-fluoropyridin-2-yl)oxy)-5-methylpyrrolidin-2-yl)-7-(2,3-dichlorophenyl)-6-fluoro-4-((R)-1-hydroxyethyl)-1H-pyrrolo[3,2-c]quinolin-8-yl)propanenitrile]
+ (a Caco-2 value of ≤0.5) | ≤ 100 | ≤ 100 | Cc1nc2c(F)c(-c3cccc(Cl)c3Cl)c(CCC#N)cc2c2c1cc([C@H]1C[C@H](Oc3ccc(C#N)cn3)CN1C(=O)C1CC1)n2[C@H]1[C@H]2CN[C@@H]1C2 [Example 60, 6-(((3S,5R)-5-(1-((1R,4R,5S)-2-Azabicyclo[2.1.1]hexan-5-yl)-8-(2-cyanoethyl)-7-(2,3-dichlorophenyl)-6-fluoro-4-methyl-1H-pyrrolo[3,2-c]quinolin-2-yl)-1-(cyclopropanecarbonyl)pyrrolidin-3-yl)oxy)nicotinonitrile]
+ (a Caco-2 value of ≤0.5) | ≤ 100 | ≤ 100 | Cc1nc2c(F)c(-c3cccc(Cl)c3Cl)c(CCC#N)cc2c2c1cc([C@H]1C[C@H](n3cc(C4CCCCC4)nn3)CN1C(=O)C1CC1)n2[C@H]1[C@H]2CN[C@@H]1C2 [Example 69, 3-(1-((1R,4R,5S)-2-Azabicyclo[2.1.1]hexan-5-yl)-2-((2R,4S)-4-(4-cyclohexyl-1H-1,2,3-triazol-1-yl)-1-(cyclopropanecarbonyl)pyrrolidin-2-yl)-7-(2,3-dichlorophenyl)-6-fluoro-4-methyl-1H-pyrrolo[3,2-c]quinolin-8-yl)propanenitrile]
+++ (a Caco-2 value of >1) | ≤ 100 | ≤ 100 | Cc1nc2c(F)c(-c3cccc(Cl)c3Cl)c(CCC#N)cc2c2c1cc([C@H]1C[C@H](Oc3cc(F)ccn3)CN1C(=O)C1CC1)n2[C@H]1[C@H]2CN[C@@H]1C2 [Example 56, 3-(1-((1R,4R,5S)-2-Azabicyclo[2.1.1]hexan-5-yl)-2-((2R,4S)-1-(cyclopropanecarbonyl)-4-((4-fluoropyridin-2-yl)oxy)pyrrolidin-2-yl)-7-(2,3-dichlorophenyl)-6-fluoro-4-methyl-1H-pyrrolo[3,2-c]quinolin-8-yl)propanenitrile]
+++ (a Caco-2 value of >1) | ≤ 100 | ≤ 100 | C[C@@H]1[C@@H](Oc2c(F)ccnc2Cl)C[C@H](c2cc3c([C@@H](C)O)nc4c(F)c(-c5cccc(Cl)c5Cl)c(CCC#N)cc4c3n2[C@H]2[C@H]3CN[C@@H]2C3)N1C(=O)C1CC1 [Example 64, 3-(1-((1R,4R,5S)-2-Azabicyclo[2.1.1]hexan-5-yl)-2-((2R,4S,5R)-4-((2-chloro-4-fluoropyridin-3-yl)oxy)-1-(cyclopropanecarbonyl)-5-methylpyrrolidin-2-yl)-7-(2,3-dichlorophenyl)-6-fluoro-4-((R)-1-hydroxyethyl)-1H-pyrrolo[3,2-c]quinolin-8-yl)propanenitrile]

Structure (SMILES) | Caco-2 [1] | IC50 [2] [nM] | IC50 [3] [nM]
Cc1nc2c(F)c(-c3cccc(Cl)c3Cl)c(CCC#N)cc2c2c1cc([C@H]1C[C@H](OC3(C)CCC3)CN1C(=O)C1CC1)n2[C@H]1[C@H]2CN[C@@H]1C2 [Example 78, 3-(1-((1R,4R,5S)-2-Azabicyclo[2.1.1]hexan-5-yl)-2-((2R,4S)-1-(cyclopropanecarbonyl)-4-(1-methylcyclobutoxy)pyrrolidin-2-yl)-7-(2,3-dichlorophenyl)-6-fluoro-4-methyl-1H-pyrrolo[3,2-c]quinolin-8-yl)propanenitrile] | +++ (a Caco-2 value of >1) | ≤ 100 | ≤ 100
